Assay results: patent US20050054692A1, “Azanthranylalkyl and -cycloalkyl amides and their use as VEGF receptor inhibitors” (priority 2000, published 2005)

How the values were obtained:
VEGFR II (KDR kinase) = VEGFR II (KDR kinase) (Homo sapiens, UniProt P35968); assay: Inhibition of KDR kinase activity (33P-ATP, poly-(Glu4Tyr) filter assay); format: biochemical; conditions: 10 minutes at room temperature; poly-(Glu4Tyr) substrate
Method: Solutions Required for the Tests
Stock solution A: 3mM ATP in water pH 7.0 (−70° C.)
Stock solution B: g-33P-ATP 1 mCi/100 μl
Stock solution C: poly-(Glu4Tyr) 10 mg/ml in water
Substrate solvent: 10 mM DTT, 10 mM manganese chloride 100 mM magnesium chloride
Enzyme solution: 120 mM Tris/HCl, pH 7,5,10 μM sodium vanadium oxide
Inhibition of KDR- and FLT-1 kinase activity in the presence of the compounds according to the invention
10 μl of substrate mix [10 μl vol ATP stock solution A+25 μCi g-33P-ATP (ca. 2.5 μl of stock solution B)+30 μl poly-(Glu4Tyr) stock solution C+1.21 ml substrate solvent], 10 μl inhibitor solution [substances corresponding to the dilutions, as a control 3% DMSO in substrate solvent] and 10 μl enzyme solution [11.25 μg enzyme stock solution (KDR or FLT-1 kinase) are diluted at 4° C. in 1.25 ml enzyme solution], are added to a tapering microtitre plate (without protein binding). The mixture is mixed thoroughly and incubated for 10 minutes at room temperature. Subsequently, 10 μl of stop solution (250 mM EDTA, pH 7.0) is added, mixed and 10 μl of the solution transferred to a P 81 phosphocellulose filter. It is subsequently washed several times in 0.1 M phosphoric acid. The filter paper is dried, coated with MeltiLex and measured in a MicroBeta counter.
The IC50 values are determined from the concentration of inhibitor required to inhibit the phosphate incorporation to 50% of the uninhibited incorporation after deducting the reference value (EDTA-stopped reaction).

Chain of VEGFR II (KDR kinase) (P35968 20-1356): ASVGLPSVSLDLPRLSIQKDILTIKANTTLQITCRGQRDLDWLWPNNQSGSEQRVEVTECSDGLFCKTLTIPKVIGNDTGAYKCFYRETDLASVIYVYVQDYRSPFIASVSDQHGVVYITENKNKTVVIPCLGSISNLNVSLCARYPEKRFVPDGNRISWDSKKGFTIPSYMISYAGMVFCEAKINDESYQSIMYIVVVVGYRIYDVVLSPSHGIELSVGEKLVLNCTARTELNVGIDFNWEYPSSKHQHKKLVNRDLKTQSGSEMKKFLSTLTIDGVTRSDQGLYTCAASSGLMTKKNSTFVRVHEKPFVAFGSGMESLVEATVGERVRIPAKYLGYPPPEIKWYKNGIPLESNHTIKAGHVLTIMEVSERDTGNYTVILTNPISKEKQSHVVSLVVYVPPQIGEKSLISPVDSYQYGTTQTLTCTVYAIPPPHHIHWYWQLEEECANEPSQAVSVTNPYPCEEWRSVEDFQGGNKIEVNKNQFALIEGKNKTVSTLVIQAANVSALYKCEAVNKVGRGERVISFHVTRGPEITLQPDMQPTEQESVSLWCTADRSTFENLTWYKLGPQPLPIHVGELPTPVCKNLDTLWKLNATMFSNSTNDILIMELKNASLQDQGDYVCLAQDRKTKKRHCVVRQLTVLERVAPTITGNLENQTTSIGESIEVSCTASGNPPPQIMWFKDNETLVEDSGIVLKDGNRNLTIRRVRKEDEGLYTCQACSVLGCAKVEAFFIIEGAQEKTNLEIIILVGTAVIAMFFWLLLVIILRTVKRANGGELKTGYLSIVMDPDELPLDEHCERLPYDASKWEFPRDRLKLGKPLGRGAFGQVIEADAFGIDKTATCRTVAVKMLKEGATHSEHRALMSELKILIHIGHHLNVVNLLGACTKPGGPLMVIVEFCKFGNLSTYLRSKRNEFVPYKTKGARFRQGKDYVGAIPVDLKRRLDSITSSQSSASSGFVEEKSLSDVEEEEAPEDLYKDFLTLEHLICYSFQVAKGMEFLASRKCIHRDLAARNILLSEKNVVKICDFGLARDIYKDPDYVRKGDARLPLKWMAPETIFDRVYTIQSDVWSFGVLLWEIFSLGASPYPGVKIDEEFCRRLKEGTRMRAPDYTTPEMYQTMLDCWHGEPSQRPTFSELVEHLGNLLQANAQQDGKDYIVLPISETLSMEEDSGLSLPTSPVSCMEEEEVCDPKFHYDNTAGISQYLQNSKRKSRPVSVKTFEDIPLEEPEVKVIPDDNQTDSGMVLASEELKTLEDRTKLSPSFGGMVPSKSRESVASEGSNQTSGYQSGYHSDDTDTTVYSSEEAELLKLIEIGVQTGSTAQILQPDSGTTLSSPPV

SMILES | IC50 (VEGFR II (KDR kinase)) | melting point
O=C(NC1CCCCCCC1)c1ccccc1NCc1ccncc1 [Example 1.4] | 80 nM | 103 to 104 °C
CCCCCCCCCCNC(=O)c1ccccc1NCc1ccncc1 [Example 1.14] | 200 nM | –
CC(C)CC(C)NC(=O)c1ccccc1NCc1ccncc1 (stereo not drawn) [Example 1.23] | 500 nM | –
O=C(NCCN1CCCCC1)c1ccccc1NCc1ccncc1 [Example 1.27] | 1000 nM | 65.2 °C

Now those with a lower IC50 (VEGFR II (KDR kinase)), led by results:

IC50 (VEGFR II (KDR kinase)) | melting point | SMILES
39 nM | 118.4 °C | CC(C)(C)[C@H]1CC[C@H](NC(=O)c2ccccc2NCc2ccncc2)CC1 [Example 1.8]
50 nM | – | CC(C)(C)CCNC(=O)c1ccccc1NCc1ccncc1 [Example 1.19]
